Earlier results as cited in US7833744B2, “Methods to evaluate cytochrome P450 2C19 isoenzyme activity using a breath test” (Cambridge Isotope Laboratories, Inc., priority 2006, dated 2010).

What was measured:
CYP2C19 [1] = biological target: CYP2C19 (Homo sapiens, UniProt P33261); settings: in EMs
CYP2C19 [2] = settings: PMs vs EMs
platelets = settings: healthy volunteers who carry CYP2C19*2 compared to CYP2C19*1*1 genotype

CYP2C19 (Homo sapiens, UniProt P33261), sequence (P33261 whole entry): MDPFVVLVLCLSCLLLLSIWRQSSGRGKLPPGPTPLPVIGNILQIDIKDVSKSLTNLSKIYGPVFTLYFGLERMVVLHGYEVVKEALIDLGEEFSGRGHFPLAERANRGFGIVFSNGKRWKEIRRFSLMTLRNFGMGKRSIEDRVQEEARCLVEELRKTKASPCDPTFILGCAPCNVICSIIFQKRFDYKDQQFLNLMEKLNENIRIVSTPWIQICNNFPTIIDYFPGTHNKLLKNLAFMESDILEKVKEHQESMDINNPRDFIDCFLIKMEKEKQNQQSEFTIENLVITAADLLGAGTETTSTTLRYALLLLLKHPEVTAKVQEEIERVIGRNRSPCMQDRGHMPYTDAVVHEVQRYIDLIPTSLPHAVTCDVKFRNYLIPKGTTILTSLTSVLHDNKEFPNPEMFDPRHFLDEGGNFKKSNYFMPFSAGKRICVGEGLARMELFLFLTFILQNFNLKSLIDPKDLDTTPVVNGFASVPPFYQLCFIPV

SMILES | share of dose cleared by CYP2C19 (CYP2C19 [1]) | exposure in PMs relative to EMs of CYP2C19 (CYP2C19 [2]) | anti-platelet effect (platelets)
COc1ccnc(C[S+]([O-])c2nc3ccc(OC(F)F)cc3[nH]2)c1OC (stereo not shown) [pantoprazole] | approximately 80% | about six-fold higher | 
COc1ccc2[nH]c([S+]([O-])Cc3ncc(C)c(OC)c3C)nc2c1 (stereo not shown) [omeprazole] | approximately 80% | about six-fold higher | 
COC(=O)[C@H](c1ccccc1Cl)N1CCc2sccc2C1 [clopidogrel] |  |  | no anti-platelet effect
Cc1c(OCC(F)(F)F)ccnc1C[S+]([O-])c1nc2ccccc2[nH]1 (stereo not shown) [lansoprazole] | approximately 80% | about six-fold higher | 
